In patent US20260103479A1, “PRODRUGS OF OPICAPONE” (BIAL- PORTELA & CA, S.A., priority 2022, published 2026):

Assays:
[1] = In vitro stability in rat liver S9 fraction; type: in vitro ADME; settings: 1 μM; S9 1 mg/mL; after 0.75 h
Procedure: (§1) The stability of 1 μM of compound 1 was assessed in the following fractions: phosphate buffer, human plasma, rat plasma, human liver S9 fraction, rat liver S9 fraction and rat liver homogenates.
(§2) Reaction was initiated by adding of 1 μM of test compound to the desired matrix (plasma, liver homogenate at 0.4 g/mL or S9 fraction at 1 mg/mL, respectively), with a final volume of 350 μL. At the following time points 0, 5, 15, 30, 45, 60 min, 50 μL of sample is taken and precipitated with 200 μL of acetonitrile 1% formic acid containing the internal standard (opicapone ^13C6) at 1 μM. Samples were centrifuged at 20,000 g at 4° C. for 10 min, and then analysed by LC-MS/MS using a bioanalytical method previously developed in-house.
(§3) The stability of 1 μM of compound 4 was assessed in the following fractions: phosphate buffer, human plasma, rat plasma, human liver S9 fraction, rat liver S9 fraction and rat liver homogenates.
(§4) Reaction was initiated by adding 1 μM of test compound to the desired matrix (plasma or S9 fraction at 1 mg/mL), with a final volume of 250 μL. […] Samples were centrifuged at 20,000 g at 4° C. for 10 min, and then analysed by LC-MS/MS using bioanalytical methods previously developed in-house. […]

[2] = In vitro stability in potassium phosphate buffer pH 7.4; type: physicochemical; settings: 1 μM, after 0.75 h
Procedure: as §1, §2
Solutions of the test compounds were prepared at 10 μM using 50 mM potassium phosphate buffer (KPB) at pH 7.4, by adding 1 μL of compound stock at 10 mM to 999 μL KPB 50 mM. […]
as §3, §4

[3] = Stability in buffer at pH 1.2, 4.5 and 6.8; type: physicochemical; settings: 2500 ng/mL, 37° C.; for stability in buffer at pH 1.2 / stability in buffer at pH 4.5 / stability in buffer at pH 6.8: 4 hours
Procedure: The stability of 2500 ng/mL of compounds 1 and 4 was assessed at different pH values of 1.2, 4.5 and 6.8 over 4 hours at 37° C. • Buffer solutions were prepared as follows: • Buffer solution pH 1.2: • To prepare 1L: • 3.73 g potassium chloride • 7 mL HCl37% • Add purified water • Check/Adjust pH to 1.20±0.05 (using solutions: HCl 1M and/or NaOH 1M) • Buffer solution pH 4.5 • To prepare 1L: • 2.99 g sodium acetate trihydrate • 14 mL acetic acid 2M • Add purified water • Check/Adjust pH to 4.50±0.05 (using solutions: acetic acid 2M and/or NaOH 1M) • Buffer solution pH 6.8 • To prepare 1L: • 6.81 g potassium dihydrogen phosphate • 22 mL NaOH 1M • Add purified water • Check/Adjust pH to 6.80±0.05 (using solutions: HCl 1M and/or NaOH 1M)

Structure (SMILES) | stability in rat liver S9 fraction [1] | stability in buffer [2] | solubility in buffer at pH 1.2 [3] | stability in buffer at pH 1.2 [3] | stability in buffer at pH 4.5 [3] | stability in buffer at pH 6.8 [3]
Cc1c(Cl)c(C)[n+]([O-])c(Cl)c1-c1noc(-c2cc(OP(=O)(O)O)c(O)c([N+](=O)[O-])c2)n1 [Compound 1, 2,5-dichloro-3-(5-(4-hydroxy-3-nitro-5-(phosphonooxy)phenyl)-1,2,4-oxadiazol-3-yl)-4,6-dimethylpyridine 1-oxide] | stable | stable | not immediately soluble | stable | stable | stable
Cc1c(Cl)c(C)[n+]([O-])c(Cl)c1-c1noc(-c2cc(OCOP(=O)(O)O)c(O)c([N+](=O)[O-])c2)n1 [Compound 4, 2,5-dichloro-3-(5-(4-hydroxy-3-nitro-5-((phosphonooxy)methoxy)phenyl)-1,2,4-oxadiazol-3-yl)-4,6-dimethylpyridine 1-oxide] | stable | stable | – | stable | stable | stable
